Results as given in ChEMBL document CHEMBL5584228, “Novel saturated 1,2,4-trioxanes and their antimalarial activity against multidrug resistant Plasmodium yoelii nigeriensis in Swiss mice model via oral route” (2024).
The source made the active and inactive calls. The calls are words filed in the database; no cut-off is given here.

What was measured:
[1] = tested on: Plasmodium yoelii nigeriensis; test: Antimalarial activity against multi-drug resistant Plasmodium yoelii nigeriensis infected in swiss mouse model assessed as suppression of parasitemia at 48 mg/kg, po administered for 4 days relative to control; type: functional; conditions: time 4 day
[2] = tested on: Plasmodium yoelii nigeriensis; test: Antimalarial activity against multi-drug resistant Plasmodium yoelii nigeriensis infected in swiss mouse model assessed as suppression of parasitemia at 24 mg/kg, po administered for 4 days relative to control; type: functional; conditions: time 4 day
[3] = tested on: Plasmodium yoelii nigeriensis; test: Antimalarial activity against multi-drug resistant Plasmodium yoelii nigeriensis infected in swiss mouse model at 48 mg/kg, po administered for 4 days and measured within 6 to 8 days; type: functional, organism-based; conditions: time 6-8 day
[4] = tested on: Plasmodium yoelii nigeriensis; test: Antimalarial activity against multi-drug resistant Plasmodium yoelii nigeriensis infected in swiss mouse model assessed as suppression of parasitemia at 96 mg/kg, po administered for 4 days relative to control; type: functional; conditions: time 4 day
[5] = tested on: Plasmodium yoelii nigeriensis; test: Antimalarial activity against multi-drug resistant Plasmodium yoelii nigeriensis infected in swiss mouse model at 96 mg/kg, po administered for 4 days and measured within 6 to 8 days; type: functional, organism-based; conditions: time 6-8 day
[6] = tested on: Plasmodium yoelii nigeriensis; test: Antimalarial activity against multi-drug resistant Plasmodium yoelii nigeriensis infected in swiss mouse model at 24 mg/kg, po administered for 4 days and measured within 6 to 8 days; type: functional, organism-based; conditions: time 6-8 day
[7] = tested on: Plasmodium yoelii nigeriensis; test: Antimalarial activity against multi-drug resistant Plasmodium yoelii nigeriensis infected in swiss mouse model assessed as suppression of parasitemia at 12 mg/kg, po administered for 4 days relative to control; type: functional; conditions: time 4 day
[8] = tested on: Plasmodium yoelii nigeriensis; test: Antimalarial activity against multi-drug resistant Plasmodium yoelii nigeriensis infected in swiss mouse model assessed as suppression of parasitemia at 6 mg/kg, po administered for 4 days relative to control; type: functional; conditions: time 4 day
[9] = tested on: Plasmodium yoelii nigeriensis; test: Antimalarial activity against multi-drug resistant Plasmodium yoelii nigeriensis infected in swiss mouse model assessed as animal survival at 12 to 48 mg/kg, po administered for 4 days and measured after 28 days; type: functional; conditions: dose 12-48 mg/kg, time 28 day
[10] = tested on: Plasmodium yoelii nigeriensis; test: Antimalarial activity against multi-drug resistant Plasmodium yoelii nigeriensis infected in swiss mouse model at 12 mg/kg, po administered for 4 days and measured within 6 to 8 days; type: functional, organism-based; conditions: time 6-8 day

| SMILES | Activity [1] [%] | Activity [4] [%] | Activity [5] | also measured |
| --- | --- | --- | --- | --- |
| CCO[C@H]1O[C@@H]2O[C@@]3(C)CC[C@H]4[C@H](C)CC[C@@H]([C@H]1C)[C@@]24OO3 [ARTEMOTIL] | 100 |  |  | Activity [2]: 100%; Activity [3]: Active |
| C=C(c1ccc(Oc2ccc(-c3ccccc3)cc2)cc1)C1COC2(CCCCC2)OO1 (stereo not drawn) |  | 84.39 | inactive |  |
| C[C@H](c1ccc(Oc2ccccc2)cc1)C1COC2(CCCC2)OO1 (stereo partly drawn) | 60 | 100 | Active |  |
| C=C(c1ccc(Oc2ccccc2)cc1)C1COC2(CCCCC2)OO1 (stereo not drawn) |  | 100 |  |  |
| C=C(c1ccc(Oc2ccc3ccccc3c2)cc1)C1COC2(CCCC2)OO1 (stereo not drawn) | 100 | 100 | Active | Activity [2]: 100%; Activity [3]: Active; Activity [6]: inactive |
| C[C@@H](c1ccc(Oc2ccc(-c3ccccc3)cc2)cc1)C1COC2(OO1)C1CC3CC(C1)CC2C3 (stereo partly drawn) |  | 90 | inactive |  |
| C=C(c1ccc(Oc2ccc3ccccc3c2)cc1)C1COC2(OO1)C1CC3CC(C1)CC2C3 (stereo not drawn) |  | 100 |  |  |
| C=C(c1ccc(Oc2cccc3ccccc23)cc1)C1COC2(CCCCC2)OO1 (stereo not drawn) |  | 92.81 | inactive |  |
| C[C@H](c1ccc(Oc2ccc(-c3ccccc3)cc2)cc1)C1COC2(CCCCC2)OO1 (stereo partly drawn) |  | 100 |  |  |
| C=C(c1ccc(Oc2cccc3ccccc23)cc1)C1COC2(CCCC2)OO1 (stereo not drawn) | 100 | 100 | Active | Activity [2]: 100%; Activity [3]: Active; Activity [6]: inactive |
| C=C(c1ccc(Oc2ccccc2)cc1)C1COC2(CCCC2)OO1 (stereo not drawn) |  | 100 |  |  |
| C[C@H](c1ccc(Oc2ccccc2)cc1)C1COC2(CCCCC2)OO1 (stereo partly drawn) | 80 | 100 | Active |  |
| C=C(c1ccc(Oc2cccc3ccccc23)cc1)C1COC2(OO1)C1CC3CC(C1)CC2C3 (stereo not drawn) |  | 93.15 | inactive |  |
| C[C@H](c1ccc(Oc2cccc3ccccc23)cc1)C1COC2(CCCCC2)OO1 (stereo partly drawn) |  | 100 |  |  |
| C[C@H](c1ccc(Oc2cccc3ccccc23)cc1)C1COC2(CCCC2)OO1 (stereo partly drawn) | 100 |  |  | Activity [2]: 100%; Activity [7]: 80% |
| C[C@H](c1ccc(Oc2ccccc2)cc1)C1COC2(OO1)C1CC3CC(C1)CC2C3 (stereo partly drawn) | 100 | 100 | Active |  |
| C[C@@H](c1ccc(Oc2ccccc2)cc1)C1COC2(OO1)C1CC3CC(C1)CC2C3 (stereo partly drawn) |  | 100 | inactive |  |

| SMILES | Activity [1] [%] | Activity [4] [%] | Activity [5] | also measured |
| --- | --- | --- | --- | --- |
| C[C@H](c1ccc(Oc2ccc(-c3ccccc3)cc2)cc1)C1COC2(CCCC2)OO1 (stereo partly drawn) | 100 |  |  | Activity [2]: 100%; Activity [7]: 60% |
| C[C@@H](c1ccc(Oc2ccccc2)cc1)C1COC2(CCCCC2)OO1 (stereo partly drawn) |  | 100 | inactive |  |
| C=C(c1ccc(Oc2ccc(-c3ccccc3)cc2)cc1)C1COC2(OO1)C1CC3CC(C1)CC2C3 (stereo not drawn) |  | 100 |  |  |
| C[C@H](c1ccc(Oc2ccc(-c3ccccc3)cc2)cc1)C1COC2(OO1)C1CC3CC(C1)CC2C3 (stereo partly drawn) | 100 | 100 | Active |  |
| C[C@H](c1ccc(Oc2ccc3ccccc3c2)cc1)C1COC2(OO1)C1CC3CC(C1)CC2C3 (stereo partly drawn) | 60 | 100 | Active |  |
| C[C@@H](c1ccc(Oc2cccc3ccccc23)cc1)C1COC2(CCCC2)OO1 (stereo partly drawn) |  | 100 | inactive |  |
| C[C@H](c1ccc(Oc2cccc3ccccc23)cc1)C1COC2(OO1)C1CC3CC(C1)CC2C3 (stereo partly drawn) |  | 100 |  |  |
| C[C@@H](c1ccc(Oc2cccc3ccccc23)cc1)C1COC2(OO1)C1CC3CC(C1)CC2C3 (stereo partly drawn) |  | 70 | inactive |  |
| C[C@H](c1ccc(Oc2ccc3ccccc3c2)cc1)C1COC2(CCCC2)OO1 (stereo partly drawn) | 100 |  |  | Activity [2]: 100%; Activity [7]: 100%; Activity [8]: 60%; Survival [9]: >28 days; Activity [10]: Active |
| C=C(c1ccc(Oc2ccc(-c3ccccc3)cc2)cc1)C1COC2(CCCC2)OO1 (stereo not drawn) | 100 | 100 | Active | Activity [3]: inactive |
| C[C@@H](c1ccc(Oc2ccc3ccccc3c2)cc1)C1COC2(OO1)C1CC3CC(C1)CC2C3 (stereo partly drawn) |  | 100 | inactive |  |
| C[C@@H](c1ccc(Oc2cccc3ccccc23)cc1)C1COC2(CCCCC2)OO1 (stereo partly drawn) |  | 100 | inactive |  |
| C[C@@H](c1ccc(Oc2ccc3ccccc3c2)cc1)C1COC2(CCCC2)OO1 (stereo partly drawn) | 100 | 100 | Active |  |
| C=C(c1ccc(Oc2ccccc2)cc1)C1COC2(OO1)C1CC3CC(C1)CC2C3 (stereo not drawn) |  | 100 |  |  |
| C[C@@H](c1ccc(Oc2ccc(-c3ccccc3)cc2)cc1)C1COC2(CCCCC2)OO1 (stereo partly drawn) |  | 100 | inactive |  |
| C[C@@H](c1ccc(Oc2ccccc2)cc1)C1COC2(CCCC2)OO1 (stereo partly drawn) |  | 80 | inactive |  |
| C[C@@H](c1ccc(Oc2ccc(-c3ccccc3)cc2)cc1)C1COC2(CCCC2)OO1 (stereo partly drawn) |  | 100 | inactive |  |
